Data as given in US5952307A, “Basic α-aminoalkylphosphonate derivatives” (priority 1997, dated 1999).

Experiments:
Type in all cases: biochemical
human thrombin = target: T1, human thrombin (Homo sapiens, UniProt P00734); settings: Table II; 0.07 μM thrombin, 0.25-42 μM inhibitor, 80 mM Hepes pH 7.5, 428 mM NaCl, 8% DMSO, 25° C.; NI = no inhibition
T1 construct: bovine trypsin, human thrombin
Protocol: (§1) Inactivation rates of serine proteases by aryl diesters of peptidyl derivatives of α-aminoalkylphosphonates were measured by the incubation method. An aliquot of inhibitor (25 or 50 μl) in Me2 SO was added to a buffered enzyme solution (0.01-2.3 μM) to initiate the inactivation. Aliquots (50 μl) were withdrawn at various intervals and the residual enzymatic activity was measured. Me2 SO concentration in the reaction mixture was 8-12% (v/v). A 0.1 M HEPES, 0.01 M CaCl2, pH 7.5 buffer was utilized for trypsin and trypsin-like enzymes. A 0.1 M HEPES, 0.5 M NaCl, pH 7.5, was utilized for the other serine proteases. Peptide thioesters or peptide nitroanilides with the appropriate sequences were used as substrates for various serine proteases. All peptide thioesters hydrolysis rates were measured with the assay mixture containing 4,4'-dithiodipyridine {ε324 =19800 M^-1 cm^-1; Grasetti & Murray, Arch. Biochem. Biophys. 1967, 119, 41-48}. Peptide 4-nitroanilide hydrolysis was measured at 410 nm {ε410 =8800 M^-1 cm^-1; Erlanger et al., Arch. Biochem. Biophys. 1961, 95, 271-278}.
(§2) ^a Enzyme was incubated with the inhibitor in 250 μL of the proper
(§3) buffer at 25° C. Specifically, the inhibition reation mixtures wer
(§4) Hepes, pH 7.5 buffer containing 1 mM CaCl2 and 8% DMSO; 0.07 μM
thrombin, 0.25-42 μM inhibitor in an 80 mM Hepes, pH 7.5 buffer
(§5) containing 428 mM NaCl and 8% DMSO; 0.07 μM tryptase, 20-66 μM
(§6) DMSO. Aliquots of 25 μL were withdrawn at various intervals and the
(§7) residual enzymatic activity was measured as described in experimental
(§8) section. The kobs values were calculated from pseudofirst-order
(§9) ^a Enzyme (0.06-0.5 μM) was incubated with the inhibitor (0.25-42
(§10) μM) in 250 μL of the proper buffer containing 9% DMSO at 25°
(§11) C. The final inhibition reaction mixtures are given in the footnote to
(§12) Table 1. Aliquots of 25 μL were withdrawn at various intervals and the […]

mast cell tryptase = mast cell tryptase (Homo sapiens, UniProt Q15661); experiment: Inactivation rate of mast cell tryptase, incubation method; settings: for kobsd /[I] mast cell tryptase: 0.1M Hepes, 10% glycerol, 10 mM heparin, pH 7.5, 25° C., 7.1% DMSO, NI = no inhibition after 25 min of incubation; for kobs /[I] mast cell tryptase: 0.07 μM tryptase, 20-66 μM inhibitor, Hepes pH 7.5, heparin, 9% glycerol, 8% DMSO, 25° C., NI = no inhibition
Sequence of mast cell tryptase (Q15661 31-275): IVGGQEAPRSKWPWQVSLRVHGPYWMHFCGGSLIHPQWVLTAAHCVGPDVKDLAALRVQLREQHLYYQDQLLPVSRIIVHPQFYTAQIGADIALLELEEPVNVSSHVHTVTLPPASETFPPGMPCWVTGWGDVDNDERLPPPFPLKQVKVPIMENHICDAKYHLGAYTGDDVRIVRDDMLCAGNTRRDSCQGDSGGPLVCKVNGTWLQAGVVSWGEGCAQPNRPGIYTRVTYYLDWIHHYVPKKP
Protocol: as §1, with “271-278}. First order inactivation rate constants (Kobs) were obtained from plots of In vt /vo vs time, and the correlation coefficients were greater then 0.98.” for “271-278}.”
(§13) ^a Inhibition constants were measured in 0.1M Hepes, 0.01M CaCl2
(§14) pH 7.5 for trypsin, granzymes A, and K, and in 0.1M Hepes, 10% glycerol,
(§15) 10 mM heparin, pH 7.5 for mast cell tryptase, and at 25° C. The
(§16) reaction mixtures contained 2% DMSO for trypsin, 7.6% for granzyme A, and
(§17) 7.1% for granzyme K and tryptase. The substrate was Z--Arg--SBzl for
(§18) granzymes and trypsin, and Z--Arg--SBzl or Z--Lys--SBzl for tryptase in
(§19) the presence of DTNB. The inhibitor # concentration ranged from 0.001 to
(§20) ^b NI, no inhibition after 25 min of incubation with enzyme.
as §2, §5
inhibitor # in an mM Hepes, pH 7.5 buffer containing 8 mM heparin, 166 m
NaCl, 0.8 mM Mes, 9% glycerol and 8% DMSO; 0.42 μM factor Xa, 66 μM
as §6, §7, §8, §9, §10, §11, §12

rat granzyme K = target: T2, rat granzyme K (Rattus norvegicus, UniProt P49864); experiment: Inactivation rate of rat granzyme K, incubation method; settings: Table I; 0.1M Hepes, 0.01M CaCl2 pH 7.5, 25° C., 7.1% DMSO, substrate Z--Arg--SBzl; NI = no inhibition after 25 min of incubation
T2 sequence (P49864 26-258): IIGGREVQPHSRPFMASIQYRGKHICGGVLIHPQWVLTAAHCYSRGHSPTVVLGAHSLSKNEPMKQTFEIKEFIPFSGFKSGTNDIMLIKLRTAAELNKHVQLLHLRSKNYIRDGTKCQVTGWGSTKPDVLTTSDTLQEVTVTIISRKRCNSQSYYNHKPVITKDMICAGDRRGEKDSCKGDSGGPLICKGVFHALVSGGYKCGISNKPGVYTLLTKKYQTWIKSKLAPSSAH
Protocol: as §1, with “271-278}. First order inactivation rate constants (Kobs) were obtained from plots of In vt /vo vs time, and the correlation coefficients were greater then 0.98.” for “271-278}.”
as §13, §14, §15, §16, §17, §18, §19, §20

human granzyme A = target: T3, human granzyme A (Homo sapiens, UniProt P12544); experiment: Inactivation rate of human granzyme A, incubation method; settings: Table I; 0.1M Hepes, 0.01M CaCl2 pH 7.5, 25° C., 7.6% DMSO, substrate Z--Arg--SBzl
T3 sequence (P12544 29-262): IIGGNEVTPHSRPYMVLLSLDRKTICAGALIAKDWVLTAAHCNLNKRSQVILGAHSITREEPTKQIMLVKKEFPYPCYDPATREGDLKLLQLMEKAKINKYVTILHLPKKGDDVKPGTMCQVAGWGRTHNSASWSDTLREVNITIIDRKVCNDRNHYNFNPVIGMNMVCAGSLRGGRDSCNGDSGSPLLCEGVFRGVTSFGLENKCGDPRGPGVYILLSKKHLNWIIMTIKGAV
Protocol: as §1, with “271-278}. First order inactivation rate constants (Kobs) were obtained from plots of In vt /vo vs time, and the correlation coefficients were greater then 0.98.” for “271-278}.”
as §13, §14, §15, §16, §17, §18, §19, §20

bovine trypsin = target: T4, bovine trypsin (Bos taurus, UniProt P00760); experiment: Inactivation rate of bovine trypsin, incubation method; settings: for kobsd /[I] bovine trypsin: Table I, 0.1M Hepes, 0.01M CaCl2 pH 7.5, 25° C., 2% DMSO, substrate Z--Arg--SBzl, NI = no inhibition after 25 min; for kobs /[I] bovine trypsin: Table II, 0.13 μM trypsin, 0.25-42 μM inhibitor, 80 mM Hepes pH 7.5, 1 mM CaCl2, 8% DMSO, 25° C., NI = no inhibition
T4 sequence (P00760 24-246): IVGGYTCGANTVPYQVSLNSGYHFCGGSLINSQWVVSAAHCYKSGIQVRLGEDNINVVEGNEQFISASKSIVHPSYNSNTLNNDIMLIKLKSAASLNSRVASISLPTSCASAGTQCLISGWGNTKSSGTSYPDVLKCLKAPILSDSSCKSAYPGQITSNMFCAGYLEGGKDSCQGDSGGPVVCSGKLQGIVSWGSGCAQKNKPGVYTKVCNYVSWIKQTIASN
Protocol: as §1, with “271-278}. First order inactivation rate constants (Kobs) were obtained from plots of In vt /vo vs time, and the correlation coefficients were greater then 0.98.” for “271-278}.”
as §13, §14, §15, §16, §17, §18, §19, §20, §2, §3
composed of: 0.13 μM trypsin, 0.25-42 μM inhibitor in an 80 mM
as §4, §6, §7, §8, §9, §10, §11, §12

CC(NC(=O)C(CC(=O)O)NC(=O)OCc1ccccc1)C(=O)NC(c1ccc(C(=N)N)cc1)P(=O)(Oc1ccccc1)Oc1ccccc1 (mixture of isomers) [Cbz--Asp--Ala-(4-AmPhGly)^P (OPh)2]
kobs /[I] human thrombin (human thrombin): 110 ± 12 M⁻¹ s⁻¹
kobsd /[I] mast cell tryptase (mast cell tryptase; Table I): 0.7 M⁻¹ s⁻¹
kobsd /[I] rat granzyme K (rat granzyme K): 6 M⁻¹ s⁻¹
kobsd /[I] human granzyme A (human granzyme A): 240 ± 5 M⁻¹ s⁻¹
kobsd /[I] bovine trypsin (bovine trypsin): 2550 ± 145 M⁻¹ s⁻¹
kobs /[I] bovine trypsin (bovine trypsin): 2,550 ± 145 M^-1 s^-1

CC(NC(=O)C(CCCCNC(=O)OC(C)(C)C)NC(=O)OCc1ccccc1)C(=O)NC(c1ccc(C(=N)N)cc1)P(=O)(Oc1ccccc1)Oc1ccccc1 (mixture of isomers) [Cbz--Lyz(Boc)--Ala-(4-AmPhGly)^P (OPh)2]
kobs /[I] human thrombin (human thrombin): 450 ± 58 M⁻¹ s⁻¹
kobsd /[I] mast cell tryptase (mast cell tryptase; Table I): 8.5 ± 0.4 M⁻¹ s⁻¹
kobs /[I] mast cell tryptase (mast cell tryptase; Table II): 8.7 ± 0.4 M⁻¹ s⁻¹
kobsd /[I] human granzyme A (human granzyme A): 110 ± 5 M⁻¹ s⁻¹
kobsd /[I] bovine trypsin (bovine trypsin): 3100 ± 177 M⁻¹ s⁻¹
kobs /[I] bovine trypsin (bovine trypsin): 3,100 ± 177 M^-1 s^-1

CC(NC(=O)C(Cc1ccccc1)NC(=O)OCc1ccccc1)C(=O)NC(c1ccc(C(=N)N)cc1)P(=O)(Oc1ccccc1)Oc1ccccc1 (mixture of isomers) [Cbz--Phe--Ala-(4-AmPhGly)^P (OPh)2]
kobs /[I] human thrombin (human thrombin): 1,150 ± 88 M^-1 s^-1
kobsd /[I] mast cell tryptase (mast cell tryptase; Table I): 4 M⁻¹ s⁻¹
kobs /[I] mast cell tryptase (mast cell tryptase; Table II): 4.0 ± 0.3 M⁻¹ s⁻¹
kobsd /[I] rat granzyme K (rat granzyme K): 4.2 ± 0.3 M⁻¹ s⁻¹
kobsd /[I] human granzyme A (human granzyme A): 1770 ± 13 M⁻¹ s⁻¹
kobsd /[I] bovine trypsin (bovine trypsin): 3010 ± 318 M⁻¹ s⁻¹
kobs /[I] bovine trypsin (bovine trypsin): 3,010 ± 318 M^-1 s^-1

CC(C)C(NC(=O)OCc1ccccc1)C(=O)NC(c1ccc(C(=N)N)cc1)P(=O)(Oc1ccccc1)Oc1ccccc1 (mixture of isomers) [Cbz--Val-(4-AmPhGly)^P (OPh)2]
kobs /[I] human thrombin (human thrombin): 5.5 ± 0.4 M⁻¹ s⁻¹
kobsd /[I] mast cell tryptase (mast cell tryptase; Table I): 21.2 ± 0.2 M⁻¹ s⁻¹
kobs /[I] mast cell tryptase (mast cell tryptase; Table II): 21.2 ± 0.2 M⁻¹ s⁻¹
kobsd /[I] rat granzyme K (rat granzyme K): 0.7 ± 0.04 M⁻¹ s⁻¹
kobsd /[I] human granzyme A (human granzyme A): 6.7 ± 0.1 M⁻¹ s⁻¹
kobsd /[I] bovine trypsin (bovine trypsin): 41 ± 3 M⁻¹ s⁻¹
kobs /[I] bovine trypsin (bovine trypsin): 18 ± 2 M⁻¹ s⁻¹

N=C(N)c1ccc(C(NC(=O)[C@@H]2CCCN2C(=O)CC(c2ccccc2)c2ccccc2)P(=O)(Oc2ccccc2)Oc2ccccc2)cc1 (stereo partly drawn) [3,3-Diphenylpropanoyl-Pro-(4-AmPhGly)^P (OPh)2]
kobs /[I] human thrombin (human thrombin): 80,300 ± 368 M^-1 s^-1
kobsd /[I] rat granzyme K (rat granzyme K): 1830 ± 140 M⁻¹ s⁻¹
kobsd /[I] human granzyme A (human granzyme A): 250 ± 8 M⁻¹ s⁻¹
kobsd /[I] bovine trypsin (bovine trypsin): 2660 ± 40 M⁻¹ s⁻¹
kobs /[I] bovine trypsin (bovine trypsin): 2,660 ± 40 M^-1 s^-1

C[C@H](NC(=O)[C@H](CC(=O)OC(C)(C)C)NC(=O)OCc1ccccc1)C(=O)NC(c1ccc(C(=N)N)cc1)P(=O)(Oc1ccccc1)Oc1ccccc1 (stereo partly drawn) [Cbz--Asp(O-t-Bu)--Ala-(4-AmPhGly)^P (OPh)2]
kobs /[I] human thrombin (human thrombin): 480 ± 93 M⁻¹ s⁻¹
kobsd /[I] mast cell tryptase (mast cell tryptase; Table I): 3 M⁻¹ s⁻¹
kobs /[I] mast cell tryptase (mast cell tryptase; Table II): 3 ± 0 M⁻¹ s⁻¹
kobsd /[I] human granzyme A (human granzyme A): 280 ± 5 M⁻¹ s⁻¹
kobsd /[I] bovine trypsin (bovine trypsin): 2000 ± 24 M⁻¹ s⁻¹
kobs /[I] bovine trypsin (bovine trypsin): 2,000 ± 24 M^-1 s^-1

C[C@@H](O)[C@H](NC(=O)OCc1ccccc1)C(=O)NC(c1ccc(C(=N)N)cc1)P(=O)(Oc1ccccc1)Oc1ccccc1 (stereo partly drawn) [Cbz--Thr-(4-AmPhGly)^P (OPh)2]
kobs /[I] human thrombin (human thrombin): 61 ± 3 M⁻¹ s⁻¹
kobsd /[I] rat granzyme K (rat granzyme K): 3 M⁻¹ s⁻¹
kobsd /[I] human granzyme A (human granzyme A): 2220 ± 40 M⁻¹ s⁻¹
kobsd /[I] bovine trypsin (bovine trypsin): 97 M⁻¹ s⁻¹
kobs /[I] bovine trypsin (bovine trypsin): 97 ± 2 M⁻¹ s⁻¹

Cl.N=C(N)c1ccc(C(NC(=O)[C@@H]2CCCN2C(=O)c2cccc(Oc3ccccc3)c2)P(=O)(Oc2ccccc2)Oc2ccccc2)cc1 (stereo partly drawn) [Diphenyl N-(N-(3-Phenoxybenzoylprolyl))amino(4-amidinophenyl)methanephosphonate Hydrochloride]
kobs /[I] human thrombin (human thrombin): 1,340 ± 225 M^-1 s^-1
% Inh mast cell tryptase (mast cell tryptase; Table I, printed in the kobsd/[I] column): 7%
% Inh mast cell tryptase (mast cell tryptase; Table II, printed in the kobs/[I] column): 7%
kobsd /[I] human granzyme A (human granzyme A): 330 ± 58 M⁻¹ s⁻¹
kobsd /[I] bovine trypsin (bovine trypsin): 4080 ± 32 M⁻¹ s⁻¹
kobs /[I] bovine trypsin (bovine trypsin): 4,080 ± 32 M^-1 s^-1
